Measurements: patent US6737383B1, “Herbicidal oxadiazolidines” (priority 1999, dated 2004)

Tests used:
bedstraw = test: Test B pre/postemergence bedstraw; assay type: in vivo, Galium aparine
Summary of the method: (§1)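 Herbicidal effect was estimated by eye on a ten-point control scale after plants spent twelve to sixteen days in a greenhouse following soil or foliar treatment. Foliar sprays targeted plants at one to four leaves; all doses were formulated in a non-phytotoxic solvent with surfactant.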

blackgrass = test: Test B pre/postemergence blackgrass; assay type: in vivo, Alopecurus myosuroides
Summary of the method: as §1

surinam grass = test: Test B pre/postemergence surinam grass; assay type: in vivo, Brachiaria decumbens
Summary of the method: as §1

corn = test: Test B pre/postemergence corn; assay type: in vivo, Zea mays
Summary of the method: as §1

crabgrass = test: Test B pre/postemergence crabgrass; assay type: in vivo, Digitaria sanguinalis
Summary of the method: as §1

giant foxtail = test: Test B pre/postemergence giant foxtail; assay type: in vivo, Setaria faberii
Summary of the method: as §1

morningglory = test: Test B pre/postemergence morningglory; assay type: in vivo, Ipomoea hederacea
Summary of the method: as §1

rape = test: Test B pre/postemergence rape; assay type: in vivo, Brassica napus
Summary of the method: as §1

soybean = test: Test B pre/postemergence soybean; assay type: in vivo, Glycine max
Summary of the method: as §1

velvetleaf = test: Test B pre/postemergence velvetleaf; assay type: in vivo, Abutilon theophrasti
Summary of the method: as §1

wheat = test: Test B pre/postemergence wheat; assay type: in vivo, Triticum aestivum
Summary of the method: as §1

wild oat = test: Test B pre/postemergence wild oat; assay type: in vivo, Avena fatua
Summary of the method: as §1

purple nutsedge = test: Test B pre/postemergence purple nutsedge; assay type: in vivo, Cyperus rotundus
Summary of the method: as §1

rice = test: Test B flood test rice; assay type: in vivo, Oryza sativa
Summary of the method: (§2)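 Plants were grown to the 2-leaf stage before treatment with test chemical, then held in a greenhouse for twelve to sixteen days. Injury was visually rated against untreated controls on a 0–10 scale, where 0 is no effect and 10 is complete control.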

smallflower flatsedge = test: Test B flood test smallflower flatsedge; assay type: in vivo, Cyperus difformis
Summary of the method: as §2

duck salad = test: Test B flood test duck salad; assay type: in vivo, Heteranthera limosa
Summary of the method: as §2

[1] = Postemergence, Rate 62 g/ha, scale 0 to 10, 0 is no effect, 10 is complete control
[2] = Postemergence, Rate 250 g/ha, scale 0 to 10, 0 no effect, 10 complete control
[3] = Preemergence, Rate 62 g/ha, scale 0 to 10 (0 no effect, 10 complete control)
[4] = Preemergence, Rate 125 g/ha, scale 0 to 10 (0 no effect, 10 complete control)
[5] = Preemergence, Rate 250 g/ha, scale of 0 to 10 where 0 is no effect and 10 is complete control
[6] = Preemergence, Rate 500 g/ha, scale 0 (no effect) to 10 (complete control)
[7] = Rate 125 g/ha, Postemergence, scale 0 to 10, 0 no effect, 10 complete control
[8] = Rate 500 g/ha, Postemergence, scale 0 to 10, 0 no effect, 10 complete control
[9] = Rate 125 g/ha, Postemergence section (flood test species), scale 0 to 10, 0 no effect, 10 complete control
[10] = Rate 500 g/ha, listed under Postemergence (flood test species), scale 0 to 10, 0 no effect, 10 complete control
[11] = flood test, listed under Postemergence, Rate 250 g/ha, scale 0 to 10, 0 no effect, 10 complete control

Compound: COc1cccc(C)c1-n1c(=O)on(C(=O)N(c2ccccc2)C(C)C)c1=O [Compound 73]
- Bedstraw plant response rating (bedstraw; [1]): 0
- Bedstraw plant response rating (bedstraw; [2]): 7
- Bedstraw plant response rating (bedstraw; [3]): 0
- Plant response rating, Bedstraw (bedstraw; [4]): 0
- Plant response rating, Bedstraw (bedstraw; [5]): 0
- Bedstraw plant response rating (bedstraw; [6]): 0
- Bedstraw plant response rating (bedstraw; [7]): 0
- Bedstraw plant response rating (bedstraw; [8]): 7
- Blackgrass plant response rating (blackgrass; [1]): 0
- Blackgrass plant response rating (blackgrass; [2]): 0
- Blackgrass plant response rating (blackgrass; [3]): 0
- Plant response rating, Blackgrass (blackgrass; [4]): 0
- Plant response rating, Blackgrass (blackgrass; [5]): 0
- Blackgrass plant response rating (blackgrass; [6]): 0
- Blackgrass plant response rating (blackgrass; [7]): 0
- Blackgrass plant response rating (blackgrass; [8]): 2
- B. signalgrass plant response rating (surinam grass; [1]): 0
- B. signalgrass plant response rating (surinam grass; [2]): 0
- B. signalgrass plant response rating (surinam grass; [3]): 0
- Plant response rating, B. signalgrass (surinam grass; [4]): 0
- Plant response rating, B. signalgrass (surinam grass; [5]): 0
- B. signalgrass plant response rating (surinam grass; [6]): 0
- B. signalgrass plant response rating (surinam grass; [7]): 0
- B. signalgrass plant response rating (surinam grass; Rate 500 g/ha, Postemergence, scale of 0 to 10 where 0 is no effect and 10 is complete control): 3
- Corn plant response rating (corn; [1]): 0
- Corn plant response rating (corn; [2]): 0
- Corn plant response rating (corn; [3]): 0
- Plant response rating, Corn (corn; [4]): 0
- Plant response rating, Corn (corn; [5]): 0
- Corn plant response rating (corn; [6]): 0
- Corn plant response rating (corn; [7]): 0
- Corn plant response rating (corn; [8]): 0
- Crabgrass plant response rating (crabgrass; [1]): 0
- Crabgrass plant response rating (crabgrass; [2]): 2
- Crabgrass plant response rating (crabgrass; [3]): 1
- Plant response rating, Crabgrass (crabgrass; [4]): 5
- Plant response rating, Crabgrass (crabgrass; [5]): 8
- Crabgrass plant response rating (crabgrass; [6]): 9
- Crabgrass plant response rating (crabgrass; [7]): 0
- Crabgrass plant response rating (crabgrass; [8]): 6
- Giant foxtail plant response rating (giant foxtail; [1]): 0
- Giant foxtail plant response rating (giant foxtail; [2]): 2
- Giant foxtail plant response rating (giant foxtail; [3]): 2
- Plant response rating, Giant foxtail (giant foxtail; [4]): 7
- Plant response rating, Giant foxtail (giant foxtail; [5]): 9
- Giant foxtail plant response rating (giant foxtail; [6]): 10
- Giant foxtail plant response rating (giant foxtail; [7]): 0
- Giant foxtail plant response rating (giant foxtail; [8]): 4
- Morningglory plant response rating (morningglory; [1]): 3
- Morningglory plant response rating (morningglory; [2]): 4
- Morningglory plant response rating (morningglory; [3]): 0
- Plant response rating, Morningglory (morningglory; [4]): 0
- Plant response rating, Morningglory (morningglory; [5]): 0
- Morningglory plant response rating (morningglory; [6]): 0
- Morningglory plant response rating (morningglory; [7]): 3
- Morningglory plant response rating (morningglory; [8]): 4
- Rape plant response rating (rape; [1]): 0
- Rape plant response rating (rape; [2]): 0
- Rape plant response rating (rape; [3]): 0
- Plant response rating, Rape (rape; [4]): 0
- Plant response rating, Rape (rape; [5]): 0
- Rape plant response rating (rape; [6]): 0
- Rape plant response rating (rape; [7]): 0
- Soybean plant response rating (soybean; [1]): 0
- Soybean plant response rating (soybean; [2]): 3
- Soybean plant response rating (soybean; [3]): 0
- Plant response rating, Soybean (soybean; [4]): 0
- Plant response rating, Soybean (soybean; [5]): 0
- Soybean plant response rating (soybean; [6]): 0
- Soybean plant response rating (soybean; [7]): 0
- Soybean plant response rating (soybean; [8]): 3
- Velvetleaf plant response rating (velvetleaf; [1]): 0
- Velvetleaf plant response rating (velvetleaf; [2]): 4
- Velvetleaf plant response rating (velvetleaf; [3]): 0
- Plant response rating, Velvetleaf (velvetleaf; [4]): 0
- Plant response rating, Velvetleaf (velvetleaf; [5]): 0
- Velvetleaf plant response rating (velvetleaf; [6]): 0
- Velvetleaf plant response rating (velvetleaf; [7]): 3
- Velvetleaf plant response rating (velvetleaf; [8]): 5
- Wheat plant response rating (wheat; [1]): 0
- Wheat plant response rating (wheat; [2]): 0
- Wheat plant response rating (wheat; [3]): 0
- Plant response rating, Wheat (wheat; [4]): 0
- Plant response rating, Wheat (wheat; [5]): 0
- Wheat plant response rating (wheat; [6]): 0
- Wheat plant response rating (wheat; [7]): 0
- Wheat plant response rating (wheat; [8]): 2
- Wild oats plant response rating (wild oat; [1]): 0
- Wild oats plant response rating (wild oat; [2]): 2
- Wild oats plant response rating (wild oat; [3]): 0
- Plant response rating, Wild oats (wild oat; [4]): 0
- Plant response rating, Wild oats (wild oat; [5]): 0
- Wild oats plant response rating (wild oat; [6]): 0
- Wild oats plant response rating (wild oat; [7]): 0
- Wild oats plant response rating (wild oat; [8]): 6
- Nutsedge plant response rating (purple nutsedge; [1]): 0
- Nutsedge plant response rating (purple nutsedge; [2]): 0
- Nutsedge plant response rating (purple nutsedge; [3]): 0
- Plant response rating, Nutsedge (purple nutsedge; [4]): 0
- Plant response rating, Nutsedge (purple nutsedge; [5]): 0
- Nutsedge plant response rating (purple nutsedge; [6]): 0
- Nutsedge plant response rating (purple nutsedge; [7]): 0
- Nutsedge plant response rating (purple nutsedge; [8]): 0
- Rice plant response rating (rice; [1]): 0
- Rice plant response rating (rice; [9]): 0
- Rice plant response rating (rice; [10]): 0
- Rice plant response rating (rice; [11]): 0
- S. Flatsedge plant response rating (smallflower flatsedge; [1]): 0
- S. Flatsedge plant response rating (smallflower flatsedge; [9]): 0
- S. Flatsedge plant response rating (smallflower flatsedge; [10]): 0
- S. Flatsedge plant response rating (smallflower flatsedge; [11]): 0
- Ducksalad plant response rating (duck salad; [1]): 0
- Ducksalad plant response rating (duck salad; [9]): 0
- Ducksalad plant response rating (duck salad; [10]): 0
- Ducksalad plant response rating (duck salad; [11]): 0
